47 compounds from ChEMBL document CHEMBL1201862, “PubChem BioAssay data set” (2004) can be followed below.

Test [1] concerns the target FAD-linked sulfhydryl oxidase ALR (Homo sapiens, UniProt P55789). In words: inhibitors of human ALR sulfhydryl oxidase, dose response, biochemical, H2O2 detection, luminescence, cherry-pick (AID 493248).
For test [2], the target named is T1, Rac GTPase-activating protein 1 (Homo sapiens, UniProt Q9H0H5).
T1 sequence (Q9H0H5 whole entry): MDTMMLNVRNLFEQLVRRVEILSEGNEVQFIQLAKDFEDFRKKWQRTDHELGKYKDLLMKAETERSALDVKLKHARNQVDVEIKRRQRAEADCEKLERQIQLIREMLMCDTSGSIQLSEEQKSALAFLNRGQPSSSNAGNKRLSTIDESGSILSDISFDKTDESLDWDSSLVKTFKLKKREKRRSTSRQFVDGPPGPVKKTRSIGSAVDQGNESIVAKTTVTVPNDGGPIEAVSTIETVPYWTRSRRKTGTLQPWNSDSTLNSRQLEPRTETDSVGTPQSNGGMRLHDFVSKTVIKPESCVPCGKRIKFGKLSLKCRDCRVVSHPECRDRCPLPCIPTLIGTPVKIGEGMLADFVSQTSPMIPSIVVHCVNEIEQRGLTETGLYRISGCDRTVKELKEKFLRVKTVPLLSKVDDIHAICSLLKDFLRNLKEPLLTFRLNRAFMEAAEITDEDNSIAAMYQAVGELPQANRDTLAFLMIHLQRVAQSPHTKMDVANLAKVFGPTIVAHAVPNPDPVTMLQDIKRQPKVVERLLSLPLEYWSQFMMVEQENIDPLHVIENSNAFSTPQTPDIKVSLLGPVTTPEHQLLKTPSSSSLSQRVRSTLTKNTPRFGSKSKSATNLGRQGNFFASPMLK
Kind of test: MgcRacGAP GTPase-activating activity inhibitors, confirmation, biochemical, ADP Hunter fluorescence, primary and confirmatory (AID 624330). It is filed as functional.

The target of the next test is Cytochrome P450 3A4 (Homo sapiens, UniProt P08684).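 Further: CYP3A4 tested as one member of a cytochrome P450 panel screen.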
Another test concerns the target Cytochrome P450 2C9 (Homo sapiens, UniProt P11712).
Test [3] in a line: inhibitors of firefly luciferase expression or activity, dose response, H4 neuroglioma cells, luminescence (AID 1990). It is filed as functional, cell-based.
The nature of test [4]: Luminescence Cell-Based Dose Response HTS to Identify Inhibitors of 5'UTR Stem-Loop Driven Prion Protein mRNA Translation in H4 Neuroglioblastoma Cells. [Related pubchem assays: 1827 (Project Summary), 1813 (Primary HTS)]. The format is functional.
Test [5] in a line: inhibitors of SNCA 5'UTR-driven reporter translation, confirmation, H4 neuroglioma cells, luminescence (AID 1988). It is filed as functional, cell-based.
Test [6] in a line: Luminescence Cell-Based Dose Response HTS to Identify Activators of Luciferase Translation or Activity in H4 […] Cells. [Related pubchem assays: 1829 (Project Summary), 1814 (Primary HTS)]. The format is functional.
Test [7] in a line: HEp-2 cell cytotoxicity, dose response, cytotoxicity control for RSV inhibitor project, HTS (AID 2410). It is filed as functional. The conditions noted are these: human respiratory syncytial virus.
In test [8] the test system is Streptococcus sp. 'group A'. Kind of test: growth inhibition of control SK(-) GAS strain, dose response, counter-screen for streptokinase expression inhibitor project, luminescence, kanamycin, BacTiterGlo, confirmation (AID 1900). The format is functional, organism-based.
The target in a further test is T2, Streptokinase A (Streptococcus pyogenes serotype M1, UniProt P10520).
T2 sequence (P10520 whole entry): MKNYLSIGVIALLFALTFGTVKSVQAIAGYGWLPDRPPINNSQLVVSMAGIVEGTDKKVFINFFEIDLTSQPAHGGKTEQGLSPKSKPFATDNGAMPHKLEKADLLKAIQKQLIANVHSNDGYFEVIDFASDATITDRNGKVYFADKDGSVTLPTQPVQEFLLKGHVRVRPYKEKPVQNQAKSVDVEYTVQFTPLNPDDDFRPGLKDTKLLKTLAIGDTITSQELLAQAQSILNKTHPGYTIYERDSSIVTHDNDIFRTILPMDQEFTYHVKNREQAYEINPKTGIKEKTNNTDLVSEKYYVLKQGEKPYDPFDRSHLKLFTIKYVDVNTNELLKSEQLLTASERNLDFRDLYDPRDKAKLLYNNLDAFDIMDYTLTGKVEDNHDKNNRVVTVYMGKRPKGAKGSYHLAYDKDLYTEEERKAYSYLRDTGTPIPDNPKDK
In words: S. pyogenes streptokinase expression inhibitors, potency, dose response, plasminogen activation absorbance, OD405 (AID 1914).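 Further: secreted streptokinase activity via plasminogen activation per viability signal from cell pellet.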 The format is functional, Streptococcus pyogenes M1 GAS.

In a further test the test system is Streptococcus. In words: Group A Streptococcus viability loss, dose response, counter-screen for streptokinase expression inhibitor project, luminescence, BacTiterGlo (AID 1915).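 Further: potency for reduction of bacterial viability or growth.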 It is filed as functional, organism-based.
A further test has as its system H4. Kind of test: Luminescence Cell-Based Dose Response HTS to Identify Activators of 5'UTR Stem-Loop Driven Prion Protein mRNA Translation in H4 Neuroglioblastoma Cells. [Related pubchem assays: 1829 (Project Summary), 1814 (Primary HTS)]. The format is functional. Conditions: Homo sapiens.

Molecules are shown by their SMILES. Calls of active or inactive are those of the source. For most assays here, no stated cut-off is given here; in the data, actives have a measured EC50 and inactives only a lower limit.

FAD-linked sulfhydryl oxidase ALR, sequence (P55789 whole entry): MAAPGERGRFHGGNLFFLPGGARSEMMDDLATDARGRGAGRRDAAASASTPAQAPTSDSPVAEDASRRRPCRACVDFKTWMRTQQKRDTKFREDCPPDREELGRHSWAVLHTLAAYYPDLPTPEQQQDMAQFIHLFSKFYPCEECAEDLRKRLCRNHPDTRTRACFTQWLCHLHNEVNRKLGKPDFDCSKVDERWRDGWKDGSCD
Cytochrome P450 2C9, sequence (P11712 whole entry): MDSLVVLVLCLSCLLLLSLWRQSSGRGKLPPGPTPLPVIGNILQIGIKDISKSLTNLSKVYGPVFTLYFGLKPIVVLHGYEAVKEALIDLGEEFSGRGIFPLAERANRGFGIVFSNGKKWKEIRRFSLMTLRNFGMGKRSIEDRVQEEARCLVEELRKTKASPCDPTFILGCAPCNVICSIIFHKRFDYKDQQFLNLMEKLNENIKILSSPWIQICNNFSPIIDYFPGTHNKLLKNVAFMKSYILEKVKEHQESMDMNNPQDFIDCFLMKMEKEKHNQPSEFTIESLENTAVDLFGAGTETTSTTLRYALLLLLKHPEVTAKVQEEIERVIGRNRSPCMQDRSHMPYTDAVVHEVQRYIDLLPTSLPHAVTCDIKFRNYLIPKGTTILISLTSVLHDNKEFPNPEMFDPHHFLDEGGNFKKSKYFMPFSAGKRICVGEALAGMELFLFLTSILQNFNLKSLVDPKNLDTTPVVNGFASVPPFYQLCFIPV
Cytochrome P450 3A4, sequence (P08684 whole entry): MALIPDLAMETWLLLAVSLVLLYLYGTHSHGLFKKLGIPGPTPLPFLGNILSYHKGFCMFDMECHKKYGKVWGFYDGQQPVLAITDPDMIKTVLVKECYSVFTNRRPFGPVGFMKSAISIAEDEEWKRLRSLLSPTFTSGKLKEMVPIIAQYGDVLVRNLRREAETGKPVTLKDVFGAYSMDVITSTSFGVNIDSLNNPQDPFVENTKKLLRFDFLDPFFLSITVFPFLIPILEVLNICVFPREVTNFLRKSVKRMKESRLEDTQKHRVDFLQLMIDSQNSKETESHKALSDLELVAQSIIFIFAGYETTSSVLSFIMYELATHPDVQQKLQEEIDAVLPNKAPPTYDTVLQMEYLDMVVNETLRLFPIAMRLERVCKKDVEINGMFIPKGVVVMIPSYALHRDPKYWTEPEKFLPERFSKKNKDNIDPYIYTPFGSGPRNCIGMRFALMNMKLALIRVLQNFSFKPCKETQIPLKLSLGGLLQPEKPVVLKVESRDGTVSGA

For the compound `COc1cccc(-n2cnc3cccc(N)c32)c1`, the AC50 (in general, the concentration giving half of the maximal activity seen) in test [1] was 24.2 µM (active).
Regarding `COc1ccc(CNc2ncc(-c3cccc([N+](=O)[O-])c3)n2C)c(OC)c1OC`, the AC50 in test [1] was 0.035 µM (active).
On to `OCCN(/C=N/C1=NN(c2cccc(C(F)(F)F)c2)CC1)CCO`, for which the IC50 (in general, the concentration that inhibits the measured activity by half) in test [2] is 30.9 µM (active). Further, the results for the AC50 at Cytochrome P450 3A4 and on Cytochrome P450 2C9 were 14.1 µM (inconclusive) and 0.0224 µM (inconclusive), respectively.
Consider `COc1ccc(CCN2CC3=C(C2=O)C(c2ccccc2)NC(=O)N3C)cc1OC` (stereo not given), for which the EC50 (usually the midpoint of the concentration-response curve) in test [3] is 24.4 µM (active); in test [4] it was > 120 µM (not active); in test [5], > 120 µM (not active).
Turning to `COc1ccc(C(=O)n2c(N)nc3ccccc32)cc1OC`, the EC50 in [6] is 0.429 µM (active).
Take `O=C(O)c1ccc(NC(=O)c2cn(-c3ccccc3)nc2-c2cccc(Cl)c2)cc1`: the cytotoxic concentration (CC50) – broadly, the concentration giving 50% cytotoxicity – in test [7] was 33.6 µM (active).
As to `CC(=O)Nc1sc(NC(=O)c2ccc([N+](=O)[O-])cc2)nc1-c1cccs1`, the 50% effective concentration (EC50) (in test [8]; at Streptokinase A; in the test with Streptococcus) was > 150 µM (not active) in each case.
For the compound `CC1CCCCN1S(=O)(=O)c1ccc(NC(=O)c2cccs2)cc1` (stereo not given), the CC50 in [7] was 25.1 µM (active).
In the case of `Cc1ccc(-n2nc3c(n2)/C(=N/O)CC/C3=N\O)cc1`, the EC50 in test [6] is 1.05 µM (active).
As to `CC(C)(C)CC(C)(C)Nc1c(-c2ccc(O)cc2)nc2cnccn12`, the EC50 in test [3] is 13.9 µM (active); in test [4] it was 14.9 µM (active); in [5], 107 µM (active).
As to `COc1ccc(N)cc1NC(=O)CN1CCOCC1`, the IC50 in test [2] was 118 µM (active).
`O=C(NN=C(S)Nc1ccc(Cl)c(Cl)c1)c1cccc([N+](=O)[O-])c1`: in test [7], the CC50 is 7.46 µM (active).
Take `Cc1ccc(OCCN2CCN(C)CC2)c([N+](=O)[O-])c1`: in test [2], the IC50 is 75.4 µM (active).
As for `O=C(c1cnn2c(C(F)(F)F)cc(-c3ccc(F)cc3)nc12)N1CCc2ccccc2C1`, the results for the EC50 (in test [8]; on Streptokinase A; in the test on Streptococcus) were 14 µM (active), 37 µM (active) and > 150 µM (not active), respectively.
In the case of `CN(C)/C=N/c1ncnc2c1cnn2-c1ccc(C(F)(F)F)cn1`, the EC50 (in test [6]; in the test with H4) was > 120 µM (not active) each time.
As to `CCN(Cc1ccncc1)Cc1ccc(OC)cc1OC`, the IC50 in test [2] is 117 µM (active).
For `CC(C)n1cnc2c(NCc3ccccc3)nc(NCc3ccccc3)nc21`, the results for the EC50 (in test [8]; on Streptokinase A; in the test with Streptococcus) were 5.26 µM (active), > 150 µM (not active) and > 150 µM (not active), respectively.
Turning to `FC(F)(F)c1cc(CCN2C(=S)NC[C@@H]2CC2CCCCC2)cc(C(F)(F)F)c1`, on Streptokinase A, the EC50 was 7 µM (active).
Take `COc1cc(/C=C/c2ccc(O)cc2)cc(OC)c1` [PTEROSTILBENE]: in test [1], the AC50 is 0.778 µM (active).
Turning to `O=C(O)CSc1nnc(NC(=O)c2ccc3c(c2)OCO3)s1`, the EC50 is 13 µM (active) in [3], 16.2 µM (active) in [4] and 62.2 µM (active) in [5].
For the compound `O=C(O)CCn1cc(C=C2C(=O)NC(=O)NC2=O)c(-c2cc3ccccc3oc2=O)n1`, the AC50 in test [1] was 0.109 µM (active).
On to `CC(C)C(=O)Nc1ccc(C(=O)NNC(=S)NC(=O)c2cccs2)cc1`, for which the EC50 in test [8] is 6.98 µM (active); on Streptokinase A, > 150 µM (not active); with Streptococcus, 34.8 µM (active).
For `COc1cc(N2CCCC2)c(OC)cc1/C=C(/C#N)c1cccc(Br)c1`, the CC50 in [7] is > 50 µM (active).
`Oc1ccc(/C=N/Nc2cccc3cccnc23)c(O)c1`: the EC50 in the test on H4 was 18.7 µM (active).
`Cc1[nH]c2ccccc2c1CCNS(=O)(=O)c1ccc(S(N)(=O)=O)cc1`: in test [1], the AC50 was 2.77 µM (active).
As for `O=C(Cc1ccc(Cl)cc1)N1CCN(c2ccccc2)CC1`, the AC50 in test [1] was 17.8 µM (active).
Regarding `Cc1ccc(Nc2nnc(SCC(=O)c3ccc(Br)s3)s2)c(C)c1`, the cytotoxic concentration (CC50) in [7] is 24.4 µM (active).
Turning to `CNC(=O)c1cccn(Cc2cccc(C(F)(F)F)c2)c1=O`, the EC50 is > 120 µM (not active) in test [3], 42.8 µM (active) in [4] and 14.6 µM (active) in test [5].
Regarding `CC(C)S(=O)(=O)c1csc(NC(=O)Nc2cc(Cl)ccc2Cl)c1Cl`, the EC50 in [8] was 1.3 µM (active); on Streptokinase A it was 7.69 µM (active); with Streptococcus, 8.4 µM (active).
For `Cc1cc(C(=O)CC#N)c(C)n1-c1c(C)n(C)n(-c2ccccc2)c1=O`, the EC50 in [3], in test [4] and in test [5] was > 120 µM (not active) throughout.
As for `COc1ccc2oc(=O)c(C(=O)Oc3ccc(NC(C)=O)cc3)cc2c1`, the IC50 in test [2] is 24.5 µM (active). In addition, the AC50 at Cytochrome P450 2C9 was 39.8 µM (inconclusive).
Regarding `CN1CCN(C(=S)c2ccc(-c3cccc(Cl)c3Cl)o2)CC1`, the CC50 in test [7] is 20.7 µM (active).
Take `COc1ccc(N2CCC(CN=C(S)Nc3cc(C)cc(C)c3)C2)cc1` (stereo not given): the IC50 in test [2] was 108 µM (active).
With `CCc1ccc(NC(=O)C2CCN(S(=O)(=O)c3ccc4c(c3)NC(=O)CO4)CC2)cc1`, the 50% effective concentration (EC50) in [3], in [4] and in test [5] was > 120 µM (not active) in each case.
As to `COc1ccccc1CNCC(=O)NCc1ccc(C)cc1`, the IC50 in [2] is 163 µM (active).
Regarding `Cc1ccc(-c2csc(NCCc3nc4cc(Cl)c(Cl)cc4n3CCOCCO)n2)cc1`, in [7], the CC50 was 9.53 µM (active).
As for `Sc1nnc2n1CCCN2`, in test [1], the concentration at half-maximal activity (AC50) was 11.1 µM (active).
As for `COc1cccc(C2Nc3ccc4ccccc4c3C3=C2C(=O)CCC3)c1O` (stereo not given), the figures for the concentration giving a half-maximal response (EC50) in test [3], in test [4] and in test [5] were 10 µM (active), 32.1 µM (active) and 11.7 µM (active), respectively.
In the case of `Fc1ccc(-c2ccnc3nc(-n4cccc4)nn23)cc1`, the figures for the EC50 in test [3], in [4] and in test [5] were 39.7 µM (active), > 120 µM (not active) and > 120 µM (not active), respectively.
Consider `COc1ccc(NC2CCCN(C(=O)c3cccc(N4CCNC4=O)c3)C2)cc1` (stereo not given), for which the IC50 in test [2] was 75.2 µM (active).
For `Nc1cccc(Nc2ccccc2)c1`, the AC50 in [1] was 2.5 µM (active).
Consider `COc1cc(C(=O)NNC(=S)NC(=O)c2ccccc2C)cc(OC)c1OC`, for which the EC50 in test [8] is 2.06 µM (active); at Streptokinase A it was > 150 µM (not active); with Streptococcus it was 49.5 µM (active).
On to `Cc1ccc(C2Cc3cc(O)c(O)cc3CN2)cc1` (stereo not given), for which the AC50 in test [1] is 4.2 µM (active).
As for `COc1cccc(C(=O)Nc2ccc3[nH]c(O)nc3c2)c1OC`, the EC50 is < 0.1 µM (active) in [3] and > 120 µM (not active) in test [4].
As to `COc1ncnc2c1ncn2CCCNc1ccc(C)c(C)c1`, the IC50 in test [2] is 102 µM (active).
As to `Fc1ccc(-n2nnnc2S)cc1N1CCCC1`, the AC50 in test [1] was 5.21 µM (active).
On to `O=C(Nc1ccc2nn(-c3ccc(F)cc3)nc2c1)c1cccnc1`, for which, in [7], the CC50 is > 50 µM (active).
